What was measured:
ZEAMX (Corn, Field) = experiment: Postemergence herbicidal evaluation; type: in vivo, Zea mays, L.
Outline: (§1)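 Seedlings grown for about two weeks were sprayed postemergence and then kept under standard greenhouse care. Injury was rated visually 4–5 weeks after treatment on a 0–9 scale against untreated controls, and ratings from repeat tests were averaged.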

[1] = tested on: TRZAWR (Wheat, Winter, cv Riband); experiment: Postemergence herbicidal evaluation; type: in vivo, Triticum aestivum
Outline: as §1

[2] = tested on: CYPSE (Cyperus serotinus); experiment: Flooded paddy, preemergence weed control; type: in vivo, Rottb.; conditions: rated 3-4 weeks after treatment, 0-9 rating scale
Outline: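 Herbicidal effect was scored visually on a 0–9 scale against an untreated control 3–4 weeks after treatment. Compounds were applied preemergence as 50/50 v/v aqueous/acetone mixtures into flood water (1.5–3 cm deep over silt loam), at roughly 0.0080 to 0.1250 kg/ha active ingredient.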

[3] = tested on: ABUTH (Abutilon theophrasti); experiment: Preemergence herbicidal evaluation; type: in vivo, Medic.; conditions: preemergence, rated 4-5 weeks after treatment
[4] = tested on: ECHORC (Echinochloa oryzoides); experiment: Flooded paddy, preemergence weed control; type: in vivo, Echinochloa oryzoides (Ard.) Fritsch.; conditions: rated 3-4 weeks after treatment, 0-9 rating scale
Outline: (§2)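 Visual 0-9 rating versus control, scoring stand, vigor, malformation, size, chlorosis and overall appearance. Silt loam soil, propagules in top 0.5 cm; flood depth 1.5–3 cm held for the whole test; greenhouse.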

[5] = tested on: TRZAWR (Wheat, Winter, cv Riband); experiment: Preemergence herbicidal evaluation; type: in vivo, Triticum aestivum; conditions: preemergence, rated 4-5 weeks after treatment
Outline: (§3)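 Each species was sown separately in potting soil over roughly one inch of soil, and the surface sprayed with compound dissolved in aqueous acetone. Assessment used a 0–9 visual scale against a control after four to five weeks.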

[6] = tested on: GLXMAW (Soybean, Williams); experiment: Postemergence herbicidal evaluation; type: in vivo, Glycine max, (L.) Merr. cv Williams
Outline: as §1

[7] = tested on: IPOHE (Ipomoea hederacea); experiment: Postemergence herbicidal evaluation; type: in vivo, (L.) Jacq.
Outline: as §1

[8] = tested on: ECHCG (Echinochloa crus-galli); experiment: Preemergence herbicidal evaluation; type: in vivo, (L.) Beau; conditions: preemergence, rated 4-5 weeks after treatment
Outline: as §3

SETVI (Setaria viridis) [9] = experiment: Preemergence herbicidal evaluation; type: in vivo, (L.) Beau; conditions: preemergence, rated 4-5 weeks after treatment
Outline: as §3

GALAP (Galium aparine) = experiment: Preemergence herbicidal evaluation; type: in vivo; conditions: preemergence, rated 4-5 weeks after treatment
Outline: as §3

[10] = tested on: ECHCG (Echinochloa crus-galli); experiment: Postemergence herbicidal evaluation; type: in vivo, (L.) Beau
Outline: as §1

ORYSAT (Rice, Tebonnet) [11] = experiment: Postemergence herbicidal evaluation; type: in vivo, Oryza sativa, (L.) Tebonnet
Outline: as §1

[12] = tested on: CHEAL (Chenopodium album); experiment: Preemergence herbicidal evaluation; type: in vivo, L.; conditions: preemergence, rated 4-5 weeks after treatment
Outline: as §3

[13] = tested on: AMBEL (Ambrosia artemisifolia); experiment: Preemergence herbicidal evaluation; type: in vivo, L.; conditions: preemergence, rated 4-5 weeks after treatment
Outline: as §3

[14] = tested on: CASOB (Cassia obtusifolia); experiment: Preemergence herbicidal evaluation; type: in vivo, L.; conditions: preemergence, rated 4-5 weeks after treatment
Outline: as §3

ORYSAT (Rice, Tebonnet) [15] = experiment: Preemergence herbicidal evaluation; type: in vivo, Oryza sativa, (L.) Tebonnet; conditions: preemergence, rated 4-5 weeks after treatment
SETVI (Setaria viridis) [16] = experiment: Postemergence herbicidal evaluation; type: in vivo, (L.) Beau
Outline: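 Seedlings about two weeks old were sprayed with compound in 50/50 acetone/water plus 0.5% TWEEN 20, at the equivalent of about 0.0040 to 1.000 kg/ha. Plants were kept in a greenhouse and visually rated 0-9 against a control four to five weeks after treatment. Repeat tests were averaged.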

[17] = tested on: MOOVA (Monochoria vaginalis); experiment: Flooded paddy, preemergence weed control; type: in vivo, Presl.; conditions: rated 3-4 weeks after treatment, 0-9 rating scale
Outline: as §2

## 1-methyl-3-[3-(1,3-oxathiolan-2-yl)-1,2-benzisothiazol-5-yl]-6-(trifluoromethyl)uracil S′,S′-dioxide [Compound 32]
ZEAMX (Corn, Field); rate 0.0320 kg/ha
  Postemergence herbicidal rating, ZEAMX: 5.5
ZEAMX (Corn, Field); rate 0.0620 kg/ha
  Postemergence herbicidal rating, ZEAMX: 5.5
[1]; rate 0.0320 kg/ha
  Postemergence herbicidal rating, TRZAWR: 5.0
[1]; rate 0.0620 kg/ha
  Postemergence herbicidal rating, TRZAWR: 5.5
[2]; rate 0.0320 kg/ha
  herbicidal rating, CYPSE: 0.0
[3]; Rate 0.0620 kg/ha
  ABUTH preemergence herbicidal rating: 9.0
[3]; Rate 0.1250 kg/ha
  ABUTH preemergence herbicidal rating: 9.0
[3]; Rate 0.2500 kg/ha
  ABUTH preemergence herbicidal rating: 9.0
[4]; rate 0.0320 kg/ha
  herbicidal rating, ECHORC: 0.0
[4]; rate 0.1250 kg/ha
  herbicidal rating, ECHORC: 0.0
[5]; Rate 0.0620 kg/ha
  TRZAWR preemergence herbicidal rating: 7.0
[5]; Rate 0.1250 kg/ha
  TRZAWR preemergence herbicidal rating: 8.0
[5]; Rate 0.2500 kg/ha
  TRZAWR preemergence herbicidal rating: 9.0
[6]; rate 0.0320 kg/ha
  Postemergence herbicidal rating, GLXMAW: 8.0
[6]; rate 0.0620 kg/ha
  Postemergence herbicidal rating, GLXMAW: 9.0
[7]; rate 0.0320 kg/ha
  Postemergence herbicidal rating, IPOHE: 9.0
[7]; rate 0.0620 kg/ha
  Postemergence herbicidal rating, IPOHE: 9.0
[8]; Rate 0.0620 kg/ha
  ECHCG preemergence herbicidal rating: 6.5
[8]; Rate 0.1250 kg/ha
  ECHCG preemergence herbicidal rating: 9.0
[8]; Rate 0.2500 kg/ha
  ECHCG preemergence herbicidal rating: 9.0
SETVI (Setaria viridis) [9]; Rate 0.0620 kg/ha
  SETVI preemergence herbicidal rating: 9.0
SETVI (Setaria viridis) [9]; Rate 0.1250 kg/ha
  SETVI preemergence herbicidal rating: 9.0
SETVI (Setaria viridis) [9]; Rate 0.2500 kg/ha
  SETVI preemergence herbicidal rating: 9.0
GALAP (Galium aparine); Rate 0.0620 kg/ha
  GALAP preemergence herbicidal rating: 9.0
GALAP (Galium aparine); Rate 0.1250 kg/ha
  GALAP preemergence herbicidal rating: 9.0
GALAP (Galium aparine); Rate 0.2500 kg/ha
  GALAP preemergence herbicidal rating: 9.0
[10]; rate 0.0320 kg/ha
  Postemergence herbicidal rating, ECHCG: 3.0
[10]; rate 0.0620 kg/ha
  Postemergence herbicidal rating, ECHCG: 5.0
ORYSAT (Rice, Tebonnet) [11]; rate 0.0320 kg/ha
  Postemergence herbicidal rating, ORYSAT: 5.0
ORYSAT (Rice, Tebonnet) [11]; rate 0.0620 kg/ha
  Postemergence herbicidal rating, ORYSAT: 5.5
[12]; Rate 0.0620 kg/ha
  CHEAL preemergence herbicidal rating: 9.0
[12]; Rate 0.1250 kg/ha
  CHEAL preemergence herbicidal rating: 9.0
[12]; Rate 0.2500 kg/ha
  CHEAL preemergence herbicidal rating: 9.0
[13]; Rate 0.0620 kg/ha
  AMBEL preemergence herbicidal rating: 9.0
[13]; Rate 0.1250 kg/ha
  AMBEL preemergence herbicidal rating: 9.0
[13]; Rate 0.2500 kg/ha
  AMBEL preemergence herbicidal rating: 9.0
[14]; Rate 0.0620 kg/ha
  CASOB preemergence herbicidal rating: 6.5
[14]; Rate 0.1250 kg/ha
  CASOB preemergence herbicidal rating: 8.0
[14]; Rate 0.2500 kg/ha
  CASOB preemergence herbicidal rating: 9.0
ORYSAT (Rice, Tebonnet) [15]; Rate 0.0620 kg/ha
  ORYSAT preemergence herbicidal rating: 5.0
ORYSAT (Rice, Tebonnet) [15]; Rate 0.1250 kg/ha
  ORYSAT preemergence herbicidal rating: 7.5
ORYSAT (Rice, Tebonnet) [15]; Rate 0.2500 kg/ha
  ORYSAT preemergence herbicidal rating: 8.5
SETVI (Setaria viridis) [16]; rate 0.0320 kg/ha
  Postemergence herbicidal rating, SETVI: 3.0
SETVI (Setaria viridis) [16]; rate 0.0620 kg/ha
  Postemergence herbicidal rating, SETVI: 6.0
[17]; rate 0.0320 kg/ha
  herbicidal rating, MOOVA: 6.0
[17]; rate 0.1250 kg/ha
  herbicidal rating, MOOVA: 9.0

## Cn1c(C(F)(F)F)cc(=O)n(-c2ccc3snc(-c4ccsc4)c3c2)c1=O [Compound 1, 1-methyl-3-[3-(3-thienyl)-1,2-benzisothiazol-5-yl]-6-(trifluoromethyl)uracil]
ZEAMX (Corn, Field); rate 0.0320 kg/ha
  Postemergence herbicidal rating, ZEAMX: 5.5
ZEAMX (Corn, Field); rate 0.0620 kg/ha
  Postemergence herbicidal rating, ZEAMX: 5.8
ZEAMX (Corn, Field); rate 0.1250 kg/ha
  Postemergence herbicidal rating, ZEAMX: 6.0
[1]; rate 0.0320 kg/ha
  Postemergence herbicidal rating, TRZAWR: 3.5
[1]; rate 0.0620 kg/ha
  Postemergence herbicidal rating, TRZAWR: 3.5
[1]; rate 0.1250 kg/ha
  Postemergence herbicidal rating, TRZAWR: 4.3
[2]; rate 0.0320 kg/ha
  herbicidal rating, CYPSE: 3.5
[2]; rate 0.1250 kg/ha
  herbicidal rating, CYPSE: 9.0
[3]; Rate 0.0620 kg/ha
  ABUTH preemergence herbicidal rating: 9.0
[3]; Rate 0.1250 kg/ha
  ABUTH preemergence herbicidal rating: 9.0
[3]; Rate 0.2500 kg/ha
  ABUTH preemergence herbicidal rating: 9.0
[4]; rate 0.0080 kg/ha
  herbicidal rating, ECHORC: 6.0
[4]; rate 0.0320 kg/ha
  herbicidal rating, ECHORC: 9.0
[4]; rate 0.1250 kg/ha
  herbicidal rating, ECHORC: 9.0
[5]; Rate 0.0620 kg/ha
  TRZAWR preemergence herbicidal rating: 3.5
[5]; Rate 0.1250 kg/ha
  TRZAWR preemergence herbicidal rating: 4.0
[5]; Rate 0.2500 kg/ha
  TRZAWR preemergence herbicidal rating: 5.0
[6]; rate 0.0320 kg/ha
  Postemergence herbicidal rating, GLXMAW: 6.8
[6]; rate 0.0620 kg/ha
  Postemergence herbicidal rating, GLXMAW: 7.0
[6]; rate 0.1250 kg/ha
  Postemergence herbicidal rating, GLXMAW: 7.8
[7]; rate 0.0320 kg/ha
  Postemergence herbicidal rating, IPOHE: 9.0
[7]; rate 0.0620 kg/ha
  Postemergence herbicidal rating, IPOHE: 9.0
[7]; rate 0.1250 kg/ha
  Postemergence herbicidal rating, IPOHE: 9.0
[8]; Rate 0.0620 kg/ha
  ECHCG preemergence herbicidal rating: 7.3
[8]; Rate 0.1250 kg/ha
  ECHCG preemergence herbicidal rating: 8.0
[8]; Rate 0.2500 kg/ha
  ECHCG preemergence herbicidal rating: 9.0
SETVI (Setaria viridis) [9]; Rate 0.0620 kg/ha
  SETVI preemergence herbicidal rating: 9.0
SETVI (Setaria viridis) [9]; Rate 0.1250 kg/ha
  SETVI preemergence herbicidal rating: 9.0
SETVI (Setaria viridis) [9]; Rate 0.2500 kg/ha
  SETVI preemergence herbicidal rating: 9.0
GALAP (Galium aparine); Rate 0.0620 kg/ha
  GALAP preemergence herbicidal rating: 9.0
GALAP (Galium aparine); Rate 0.1250 kg/ha
  GALAP preemergence herbicidal rating: 7.0
GALAP (Galium aparine); Rate 0.2500 kg/ha
  GALAP preemergence herbicidal rating: 6.5
[10]; rate 0.0320 kg/ha
  Postemergence herbicidal rating, ECHCG: 2.0
[10]; rate 0.0620 kg/ha
  Postemergence herbicidal rating, ECHCG: 2.5
[10]; rate 0.1250 kg/ha
  Postemergence herbicidal rating, ECHCG: 4.0
ORYSAT (Rice, Tebonnet) [11]; rate 0.0320 kg/ha
  Postemergence herbicidal rating, ORYSAT: 3.5
ORYSAT (Rice, Tebonnet) [11]; rate 0.0620 kg/ha
  Postemergence herbicidal rating, ORYSAT: 3.5
ORYSAT (Rice, Tebonnet) [11]; rate 0.1250 kg/ha
  Postemergence herbicidal rating, ORYSAT: 5.0
[12]; Rate 0.0620 kg/ha
  CHEAL preemergence herbicidal rating: 9.0
[12]; Rate 0.1250 kg/ha
  CHEAL preemergence herbicidal rating: 9.0
[12]; Rate 0.2500 kg/ha
  CHEAL preemergence herbicidal rating: 9.0
[13]; Rate 0.0620 kg/ha
  AMBEL preemergence herbicidal rating: 7.3
[13]; Rate 0.1250 kg/ha
  AMBEL preemergence herbicidal rating: 9.0
[13]; Rate 0.2500 kg/ha
  AMBEL preemergence herbicidal rating: 9.0
[14]; Rate 0.0620 kg/ha
  CASOB preemergence herbicidal rating: 7.3
[14]; Rate 0.1250 kg/ha
  CASOB preemergence herbicidal rating: 8.3
[14]; Rate 0.2500 kg/ha
  CASOB preemergence herbicidal rating: 8.3
ORYSAT (Rice, Tebonnet) [15]; Rate 0.0620 kg/ha
  ORYSAT preemergence herbicidal rating: 5.0
ORYSAT (Rice, Tebonnet) [15]; Rate 0.1250 kg/ha
  ORYSAT preemergence herbicidal rating: 5.0
ORYSAT (Rice, Tebonnet) [15]; Rate 0.2500 kg/ha
  ORYSAT preemergence herbicidal rating: 6.5
SETVI (Setaria viridis) [16]; rate 0.0320 kg/ha
  Postemergence herbicidal rating, SETVI: 7.0
SETVI (Setaria viridis) [16]; rate 0.0620 kg/ha
  Postemergence herbicidal rating, SETVI: 6.5
SETVI (Setaria viridis) [16]; rate 0.1250 kg/ha
  Postemergence herbicidal rating, SETVI: 8.0
[17]; rate 0.0080 kg/ha
  herbicidal rating, MOOVA: 9.0
[17]; rate 0.0320 kg/ha
  herbicidal rating, MOOVA: 9.0
[17]; rate 0.1250 kg/ha
  herbicidal rating, MOOVA: 9.0
